Data on 22 compounds can be found in ChEMBL document CHEMBL5291721, “A preclinical secondary pharmacology resource illuminates target-adverse drug reaction associations of marketed drugs” (Nat Commun, 2023).

For one assay, the target named is Bile salt export pump (Homo sapiens, UniProt O95342). The assay is classed as functional.
In assay [1] the target is T1, Alpha-2C adrenergic receptor (Homo sapiens, UniProt P18825).
T1 sequence (P18825 whole entry): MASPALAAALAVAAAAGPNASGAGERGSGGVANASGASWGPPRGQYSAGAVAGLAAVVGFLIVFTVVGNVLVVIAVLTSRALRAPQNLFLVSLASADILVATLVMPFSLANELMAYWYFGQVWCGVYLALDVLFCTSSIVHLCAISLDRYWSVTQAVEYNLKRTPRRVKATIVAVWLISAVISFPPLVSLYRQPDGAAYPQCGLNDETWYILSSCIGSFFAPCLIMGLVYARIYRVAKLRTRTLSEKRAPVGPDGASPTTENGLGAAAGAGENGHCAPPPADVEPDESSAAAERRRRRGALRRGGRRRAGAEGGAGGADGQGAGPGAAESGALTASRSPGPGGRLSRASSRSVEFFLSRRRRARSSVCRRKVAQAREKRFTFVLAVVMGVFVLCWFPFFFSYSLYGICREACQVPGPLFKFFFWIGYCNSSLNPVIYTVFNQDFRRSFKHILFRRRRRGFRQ
The assay is classed as functional.

Assay [2] has as its target T2, D(1A) dopamine receptor (Homo sapiens, UniProt P21728). The assay is classed as functional, cell-based.
Assay [3] addresses Sodium-dependent dopamine transporter (Homo sapiens, UniProt Q01959).
For the next assay, the target named is T3, Progesterone receptor (Homo sapiens, UniProt P06401).
T3 sequence (P06401 whole entry): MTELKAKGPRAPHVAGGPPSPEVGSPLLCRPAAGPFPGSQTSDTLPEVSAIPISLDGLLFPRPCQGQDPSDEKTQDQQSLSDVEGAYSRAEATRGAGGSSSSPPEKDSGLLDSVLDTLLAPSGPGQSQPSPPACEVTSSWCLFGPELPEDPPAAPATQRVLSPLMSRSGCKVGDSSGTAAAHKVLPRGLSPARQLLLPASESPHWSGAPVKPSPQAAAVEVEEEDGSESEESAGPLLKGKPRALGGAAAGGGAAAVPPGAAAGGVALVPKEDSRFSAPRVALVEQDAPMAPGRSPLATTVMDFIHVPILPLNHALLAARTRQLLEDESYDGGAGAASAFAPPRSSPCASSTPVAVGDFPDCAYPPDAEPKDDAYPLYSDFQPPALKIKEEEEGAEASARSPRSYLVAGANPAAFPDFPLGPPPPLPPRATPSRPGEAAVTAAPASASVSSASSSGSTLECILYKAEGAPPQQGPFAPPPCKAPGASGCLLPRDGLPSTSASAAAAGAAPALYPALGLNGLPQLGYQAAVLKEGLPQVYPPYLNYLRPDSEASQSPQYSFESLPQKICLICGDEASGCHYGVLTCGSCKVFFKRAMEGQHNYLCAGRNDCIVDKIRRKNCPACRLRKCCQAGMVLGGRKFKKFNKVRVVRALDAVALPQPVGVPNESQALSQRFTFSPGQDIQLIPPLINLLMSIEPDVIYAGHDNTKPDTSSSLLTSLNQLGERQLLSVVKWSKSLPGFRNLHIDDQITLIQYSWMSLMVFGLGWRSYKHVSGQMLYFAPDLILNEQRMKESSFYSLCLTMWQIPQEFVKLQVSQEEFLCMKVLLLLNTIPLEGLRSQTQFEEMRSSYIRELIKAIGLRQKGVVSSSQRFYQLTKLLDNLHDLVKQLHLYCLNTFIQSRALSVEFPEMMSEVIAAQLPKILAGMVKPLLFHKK
The assay is classed as functional.

In assay [4] the target is T4, Alpha-2A adrenergic receptor (Homo sapiens, UniProt P08913).
T4 sequence (P08913 whole entry): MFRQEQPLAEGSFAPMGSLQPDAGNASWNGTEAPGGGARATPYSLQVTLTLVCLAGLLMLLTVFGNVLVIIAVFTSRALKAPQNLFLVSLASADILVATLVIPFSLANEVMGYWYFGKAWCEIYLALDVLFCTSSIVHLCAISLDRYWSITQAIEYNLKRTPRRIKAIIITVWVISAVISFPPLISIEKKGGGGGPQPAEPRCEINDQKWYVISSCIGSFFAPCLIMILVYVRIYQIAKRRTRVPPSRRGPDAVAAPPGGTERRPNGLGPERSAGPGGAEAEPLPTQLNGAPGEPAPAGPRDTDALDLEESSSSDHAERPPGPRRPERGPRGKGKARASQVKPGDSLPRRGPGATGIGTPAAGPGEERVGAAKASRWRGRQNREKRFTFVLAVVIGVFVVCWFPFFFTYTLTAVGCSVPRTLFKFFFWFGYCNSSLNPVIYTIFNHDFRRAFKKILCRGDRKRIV

Assay [5] addresses T2, D(1A) dopamine receptor.
For assay [6], the target named is T5, Muscarinic acetylcholine receptor M1 (Homo sapiens, UniProt P11229).
T5 sequence (P11229 whole entry): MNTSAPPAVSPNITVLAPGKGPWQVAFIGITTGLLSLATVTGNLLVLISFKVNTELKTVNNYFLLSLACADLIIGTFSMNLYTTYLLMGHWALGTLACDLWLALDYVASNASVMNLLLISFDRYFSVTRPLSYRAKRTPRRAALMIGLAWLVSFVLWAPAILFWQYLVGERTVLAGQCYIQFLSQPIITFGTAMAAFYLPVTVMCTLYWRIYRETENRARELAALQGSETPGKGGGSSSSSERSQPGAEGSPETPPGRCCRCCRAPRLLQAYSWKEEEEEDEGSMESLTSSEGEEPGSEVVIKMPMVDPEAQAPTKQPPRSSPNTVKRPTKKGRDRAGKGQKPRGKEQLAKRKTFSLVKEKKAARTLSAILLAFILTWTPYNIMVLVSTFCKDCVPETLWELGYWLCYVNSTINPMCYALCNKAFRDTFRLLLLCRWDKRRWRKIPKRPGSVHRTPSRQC
The assay is classed as functional, cell-based.

The next assay addresses T6, Endothelin-1 receptor (Homo sapiens, UniProt P25101).
T6 sequence (P25101 whole entry): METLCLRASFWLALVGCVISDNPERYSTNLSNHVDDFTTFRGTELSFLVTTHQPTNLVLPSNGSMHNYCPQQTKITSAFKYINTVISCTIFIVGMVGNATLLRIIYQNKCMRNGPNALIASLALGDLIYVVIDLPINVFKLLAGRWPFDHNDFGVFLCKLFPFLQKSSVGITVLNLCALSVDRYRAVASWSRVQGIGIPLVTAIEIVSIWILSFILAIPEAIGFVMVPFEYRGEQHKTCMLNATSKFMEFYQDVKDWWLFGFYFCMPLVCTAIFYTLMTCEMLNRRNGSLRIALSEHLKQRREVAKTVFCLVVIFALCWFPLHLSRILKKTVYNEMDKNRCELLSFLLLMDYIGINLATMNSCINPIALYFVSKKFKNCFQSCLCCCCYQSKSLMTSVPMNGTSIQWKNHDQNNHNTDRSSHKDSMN
Also: assay procedure not described here.

Sequence of Sodium-dependent dopamine transporter (Q01959 whole entry): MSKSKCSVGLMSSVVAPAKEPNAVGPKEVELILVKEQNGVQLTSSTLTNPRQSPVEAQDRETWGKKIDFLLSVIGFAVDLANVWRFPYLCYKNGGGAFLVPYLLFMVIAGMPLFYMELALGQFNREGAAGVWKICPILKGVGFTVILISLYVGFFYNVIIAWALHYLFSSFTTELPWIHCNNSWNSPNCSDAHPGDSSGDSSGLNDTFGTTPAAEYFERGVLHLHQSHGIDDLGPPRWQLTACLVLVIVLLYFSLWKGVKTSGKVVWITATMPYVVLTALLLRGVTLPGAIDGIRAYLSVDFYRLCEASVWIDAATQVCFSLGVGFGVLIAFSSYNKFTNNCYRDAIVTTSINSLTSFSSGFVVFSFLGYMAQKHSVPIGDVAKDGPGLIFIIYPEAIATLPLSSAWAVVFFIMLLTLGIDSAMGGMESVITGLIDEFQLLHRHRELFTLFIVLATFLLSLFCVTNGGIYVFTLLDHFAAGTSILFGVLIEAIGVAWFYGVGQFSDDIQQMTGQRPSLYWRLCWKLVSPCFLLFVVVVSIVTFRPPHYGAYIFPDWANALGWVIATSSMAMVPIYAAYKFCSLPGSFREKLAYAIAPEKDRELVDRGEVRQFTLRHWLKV
T2 sequence (P21728 whole entry): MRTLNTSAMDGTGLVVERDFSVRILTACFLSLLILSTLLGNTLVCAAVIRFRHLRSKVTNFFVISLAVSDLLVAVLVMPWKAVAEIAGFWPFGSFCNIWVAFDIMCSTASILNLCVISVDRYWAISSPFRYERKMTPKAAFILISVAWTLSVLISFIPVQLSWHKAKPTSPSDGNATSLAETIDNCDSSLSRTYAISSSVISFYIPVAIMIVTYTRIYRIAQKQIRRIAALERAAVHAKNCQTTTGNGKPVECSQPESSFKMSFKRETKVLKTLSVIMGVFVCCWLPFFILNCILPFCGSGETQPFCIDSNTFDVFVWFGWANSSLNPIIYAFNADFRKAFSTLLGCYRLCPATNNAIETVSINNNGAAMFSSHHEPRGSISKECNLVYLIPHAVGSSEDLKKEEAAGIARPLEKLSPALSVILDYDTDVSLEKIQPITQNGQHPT
Sequence of Bile salt export pump (O95342 whole entry): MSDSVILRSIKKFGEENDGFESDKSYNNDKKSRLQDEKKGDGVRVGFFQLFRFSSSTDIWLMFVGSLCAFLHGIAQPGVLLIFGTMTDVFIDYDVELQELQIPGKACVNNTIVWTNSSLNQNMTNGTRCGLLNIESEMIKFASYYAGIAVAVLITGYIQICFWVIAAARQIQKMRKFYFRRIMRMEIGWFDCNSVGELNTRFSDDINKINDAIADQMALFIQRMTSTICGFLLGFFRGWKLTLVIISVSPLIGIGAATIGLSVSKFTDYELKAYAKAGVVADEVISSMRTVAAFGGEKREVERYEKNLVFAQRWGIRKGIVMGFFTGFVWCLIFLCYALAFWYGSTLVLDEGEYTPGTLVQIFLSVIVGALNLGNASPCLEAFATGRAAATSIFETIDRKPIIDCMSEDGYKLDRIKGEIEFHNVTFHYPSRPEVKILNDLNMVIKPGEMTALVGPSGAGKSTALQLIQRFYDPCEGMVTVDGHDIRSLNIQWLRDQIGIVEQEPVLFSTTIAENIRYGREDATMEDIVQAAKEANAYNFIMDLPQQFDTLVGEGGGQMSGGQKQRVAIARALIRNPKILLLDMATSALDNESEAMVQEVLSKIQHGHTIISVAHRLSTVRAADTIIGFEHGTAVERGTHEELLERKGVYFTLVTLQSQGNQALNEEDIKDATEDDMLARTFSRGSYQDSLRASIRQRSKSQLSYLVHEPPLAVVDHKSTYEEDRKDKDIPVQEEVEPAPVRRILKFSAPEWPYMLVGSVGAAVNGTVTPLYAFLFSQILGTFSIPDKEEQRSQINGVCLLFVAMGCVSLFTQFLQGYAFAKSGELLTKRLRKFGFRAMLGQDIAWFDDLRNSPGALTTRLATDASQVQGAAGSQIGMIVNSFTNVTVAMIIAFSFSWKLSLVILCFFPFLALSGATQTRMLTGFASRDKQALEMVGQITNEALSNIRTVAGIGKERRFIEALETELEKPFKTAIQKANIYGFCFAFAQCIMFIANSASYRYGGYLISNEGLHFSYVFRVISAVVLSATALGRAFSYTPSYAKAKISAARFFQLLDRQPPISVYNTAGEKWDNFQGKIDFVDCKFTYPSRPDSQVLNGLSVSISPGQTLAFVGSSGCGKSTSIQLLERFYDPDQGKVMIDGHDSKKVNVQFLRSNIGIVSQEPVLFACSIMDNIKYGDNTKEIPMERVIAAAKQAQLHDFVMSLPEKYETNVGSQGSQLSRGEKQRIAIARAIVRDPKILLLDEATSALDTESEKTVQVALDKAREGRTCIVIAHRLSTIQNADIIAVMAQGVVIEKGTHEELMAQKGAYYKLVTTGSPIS

Take `C=CC1=C(C(=O)O)N2C(=O)[C@@H](NC(=O)/C(=N\O)c3csc(N)n3)[C@H]2SC1`: the AC50 (as a rule, the concentration giving half of the maximal activity seen) on Bile salt export pump was over 300 µM; in assay [1], over 10 µM; at D(1A) dopamine receptor [2], over 10 µM; in [3] it was over 30 µM.

With `CC(C)C[C@H](NC(=O)[C@H](Cc1ccccc1)NC(=O)c1cnccn1)B(O)O` [BORTEZOMIB], the AC50 on Bile salt export pump is over 300 µM; in [1], over 30 µM; on D(1A) dopamine receptor [2] it was over 30 µM; on Progesterone receptor, over 30 µM; in assay [3] it was over 30 µM.

Consider `O=c1[nH]c2ccccc2n1CCN1CCN(c2cccc(C(F)(F)F)c2)CC1` [FLIBANSERIN], for which the figures for the AC50 (at Bile salt export pump; in [4]; on D(1A) dopamine receptor [5]) were 29 µM, 10.3 µM and 2.43 µM, respectively.

For `O=NN(CCCl)C(=O)NC1CCCCC1` [LOMUSTINE], the figures for the AC50 (on Bile salt export pump; in assay [4]; at D(1A) dopamine receptor [5]) were over 300 µM, 3.5 µM and over 30 µM, respectively.

Regarding `CN(C)CCN(Cc1ccccc1)c1ccccn1` [TRIPELENNAMINE], the half-maximal activity concentration (AC50) in assay [4] was 3.08 µM; in [1], 9.4 µM; in assay [6], over 30 µM; on D(1A) dopamine receptor [2] it was over 10 µM; on D(1A) dopamine receptor [5], 19.4 µM; in assay [3], 1.3 µM.

Consider `NCCCCCC(=O)O` [AMINOCAPROIC ACID], for which the AC50 on Bile salt export pump was over 300 µM; in assay [1] it was over 10 µM; at D(1A) dopamine receptor [2] it was over 10 µM; at Progesterone receptor, over 10 µM; in assay [3] it was 12.7 µM.

For the compound `C[C@]12CCC(=O)C=C1CC[C@H]1[C@@H]3CC[C@](O)(C(=O)CO)[C@@]3(C)C[C@H](O)[C@@]12F` [FLUDROCORTISONE], the AC50 at Bile salt export pump is over 300 µM; in [1], over 10 µM; on D(1A) dopamine receptor [2] it was over 10 µM; at Endothelin-1 receptor, over 30 µM; in [3], over 30 µM.

In the case of `O=P1(N(CCCl)CCCl)NCCCO1` (centres undefined) [CYCLOPHOSPHAMIDE ANHYDROUS], the AC50 on Bile salt export pump is over 300 µM; in assay [4], over 30 µM; on D(1A) dopamine receptor [5], over 30 µM.

`CC(=O)Oc1ccccc1C(=O)O` [ASPIRIN]: the AC50 on Bile salt export pump was over 300 µM; in assay [4], over 30 µM; in assay [1], over 10 µM; at D(1A) dopamine receptor [2] it was over 10 µM; at D(1A) dopamine receptor [5], over 30 µM; on Endothelin-1 receptor, over 30 µM. Besides, the AC50 in [3] was over 30 µM.

As to `CN(C)CCCC1(c2ccc(F)cc2)OCc2cc(C#N)ccc21` (centres undefined) [CITALOPRAM], the AC50 at Bile salt export pump is over 300 µM; in assay [4], over 30 µM; in assay [1], over 10 µM; on Endothelin-1 receptor, over 30 µM.

Consider `O=C(O)[C@@H](S)[C@@H](S)C(=O)O`, for which the AC50 was 50 µM on Bile salt export pump, over 30 µM in [4] and over 30 µM on D(1A) dopamine receptor [5].

With `CCOC(=O)[C@H](CCc1ccccc1)N[C@@H](C)C(=O)N1Cc2ccccc2C[C@H]1C(=O)O`, the AC50 at Bile salt export pump was 100 µM; in assay [4], over 30 µM; in [1] it was over 10 µM; on D(1A) dopamine receptor [2], over 10 µM; at D(1A) dopamine receptor [5], over 30 µM; on Endothelin-1 receptor it was over 30 µM. Besides, the AC50 in assay [3] was over 10 µM.

Take `OCCOCCN1CCN(C(c2ccccc2)c2ccc(Cl)cc2)CC1` (centres undefined) [HYDROXYZINE]: the AC50 on Bile salt export pump is 270 µM; in assay [1], 2.3 µM; on D(1A) dopamine receptor [2] it was over 10 µM; at Endothelin-1 receptor, over 30 µM; in assay [3], over 10 µM.

`CC(C)NCC(O)COc1ccc(CC(N)=O)cc1` (centres undefined) [ATENOLOL]: the AC50 at Bile salt export pump is over 300 µM; in [1] it was over 30 µM; at Progesterone receptor, over 30 µM.

Regarding `CCOc1ccccc1OCCN[C@H](C)Cc1ccc(OC)c(S(N)(=O)=O)c1` [TAMSULOSIN], the concentration at half-maximal activity (AC50) at Bile salt export pump was over 300 µM; in assay [1], 0.3 µM; at D(1A) dopamine receptor [2], over 10 µM; in [3] it was over 30 µM.

Turning to `NCCCNCCSP(=O)(O)O` [AMIFOSTINE], the AC50 is over 300 µM on Bile salt export pump; over 30 µM in [1]; over 30 µM on D(1A) dopamine receptor [2]; over 30 µM at Endothelin-1 receptor; over 30 µM in assay [3].

Regarding `O=C(O)COC(=O)Cc1ccccc1Nc1c(Cl)cccc1Cl` [ACECLOFENAC], the concentration at half-maximal activity (AC50) was 130 µM at Bile salt export pump, over 10 µM in assay [1], over 10 µM at D(1A) dopamine receptor [2] and over 30 µM in assay [3].

With `CCN(CCO)CCCC(C)Nc1ccnc2cc(Cl)ccc12` (centres undefined) [HYDROXYCHLOROQUINE], the AC50 at Bile salt export pump is over 300 µM; on D(1A) dopamine receptor [2] it was over 10 µM; on Progesterone receptor, over 10 µM; in assay [3] it was over 10 µM.

With `C[C@H](CS)C(=O)N1CCC[C@H]1C(=O)O` [CAPTOPRIL], the AC50 at Bile salt export pump was over 300 µM; in assay [1], over 10 µM; on D(1A) dopamine receptor [2], over 30 µM; in assay [3], over 30 µM.

Consider `CCOC(=O)Nc1ccc(NCc2ccc(F)cc2)nc1N` [FLUPIRTINE], for which the AC50 at Bile salt export pump was 85 µM; in [1] it was over 30 µM; at D(1A) dopamine receptor [2], over 30 µM; at Endothelin-1 receptor, over 30 µM; in assay [3], over 30 µM.

For `C[C@H](CCC(=O)O)[C@H]1CC[C@H]2[C@@H]3[C@H](O)C[C@@H]4C[C@H](O)CC[C@]4(C)[C@H]3CC[C@]12C` [CHENODIOL], the AC50 was 13 µM at Bile salt export pump; over 30 µM in assay [1]; over 30 µM on D(1A) dopamine receptor [2]; over 30 µM on Endothelin-1 receptor; over 30 µM in assay [3].

`Nc1nnc(-c2cccc(Cl)c2Cl)c(N)n1` [LAMOTRIGINE]: the AC50 was over 300 µM on Bile salt export pump; over 10 µM in assay [1]; over 30 µM on D(1A) dopamine receptor [2]; over 30 µM on Endothelin-1 receptor; over 10 µM in assay [3].
